Literature values in US20130084272A1, “COMPOSITIONS, KITS AND METHODS FOR NUTRITIONAL SUPPLEMENTATION WITH TWELVE CARBON CHAIN FATTY ACIDS AND TWELVE CARBON CHAIN ACYLGLYCEROLS” (priority 2011, published 2013).

Test system: exotoxins from Gram-positive bacteria
Settings: Peterson et al. 2006; cited from earlier work

For `CCCCCCCCCCCC(=O)OCC(O)CO` (stereo not shown) [monolaurin, glycerol monolaurate], the “Effect on exotoxins from Gram-positive bacteria” value is listed as “inhibit the effects of exotoxins”.
